Experimental data published in patent US20020137929A1, “1 - (3-heterocyclylphenyl) isothiourea, -isourea, -guanidine and -amidine herbicidal agents” (Intellectual Property Department, BASF Aktiengesellschaft, priority 1998, published 2002).

Legend:
AMBEL (Ragweed, Common) = assay: Postemergence herbicidal evaluation; format: in vivo, Ambrosia artemisifolia; settings: for AMBEL herbicidal rating: postemergence
Method in brief: (§1)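 ~2-wk seedlings; postemergence spray, 40 psi; vehicle 1:1 acetone:water + 0.5% Tween 20; rate ≈0.0156–0.500 kg/ha; greenhouse hold; scored 4–5 wk after treatment, 0–9 scale vs control; repeat tests averaged.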

GALAP (Galium) = assay: Postemergence herbicidal evaluation; format: in vivo, Galium aparine; settings: for GALAP herbicidal rating: postemergence
Method in brief: as §1

[1] = tested on: TRZAWR (Wheat, Winter, cv Riband); assay: Postemergence herbicidal evaluation; format: in vivo, Triticum aestivum; settings: for TRZAWR herbicidal rating: postemergence
Method in brief: as §1

[2] = tested on: CHEAL (Lambsquarters, Common); assay: Preemergence herbicidal evaluation; format: in vivo, Chenopodium album; settings: rated 4-5 weeks after treatment; for CHEAL rating: preemergence, 0-9 scale
Method in brief: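 Sown cups got a single aqueous acetone spray of test compound (roughly 0.0156–0.500 kg/ha) before seedlings emerged. Evaluation, 4–5 weeks on, used a 0–9 visual scale covering plant stand, vigor, size, malformation, chlorosis and general appearance compared with controls.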

ORYSAT (Rice, Tebonnet) [3] = assay: Rice tolerance to post-transplant applications, flooded paddy conditions (Table III); format: in vivo, Oryza sativa, (L.) Tebonnet
Method in brief: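 Injury scored 0-9 by eye against untreated control, judging stand, vigor, malformation, size and chlorosis, three to four weeks after treatment. Compound in 50/50 aqueous/acetone, about 0.0313 to 0.500 kg/ha, was applied to paddy water (1.5 to 3 cm depth) three days after transplanting paired ten-day-old Tebonnet rice seedlings.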

MOOVA (Monochoria) = assay: Postemergence weed control under flooded paddy conditions; format: in vivo, Monochoria vaginalis; settings: postemergence weeds, 3-4 weeks after treatment
Method in brief: (§2)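 Injury ratings (0–9 scale covering stand, vigor, malformation, size, chlorosis and overall appearance versus control) were made three to four weeks after treatment. Test material, about 0.0313 to 0.500 kg/ha a.i. in 50/50 v/v aqueous/acetone, was added to flood water 1.5 to 3 cm deep over 3 to 5 cm weeds and 1.5 to 2.5 leaf rice.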

[4] = tested on: SAGPY (Arrowhead (Pygmaea)); assay: as above; format: in vivo, Sagittaria pygmaea; settings: postemergence weeds
Method in brief: as §2

ORYSAT (Rice, Tebonnet) [5] = assay: Rice tolerance to post-transplant applications, flooded paddy conditions (Table IV); format: in vivo, Oryza sativa, (L.) Tebonnet
Excerpt: Results of herbicide evaluation are expressed on a rating scale (0-9). The scale is based upon a visual observation of plant stand, vigor, malformation, size, chlorosis and overall plant appearance as compared with a control.
Plastic containers containing weeds which are 3 to 5 cm tall and rice seedlings at the 1.5 to 2.5 leaf stage are flooded with water. The water is maintained at 1.5 to 3 cm above the soil surface for the duration of the experiment. Test compounds are applied as aqueous/ acetone mixtures 50/50 v/v directly into the flood water to provide the equivalent of about 0.0313 to 0.500 kg/ha of active ingredient. The treated containers are placed on greenhouse benches and cared for in accordance with conventional greenhouse procedures. Three to four weeks after treatment, the test is terminated and each container is examined and herbicidal effect rated according to the rating system provided in Example 37. The compounds evaluated are reported by compound number given in Example 37.

[6] = 0.1250 kg/ha, post-transplant rice, flooded paddy, rated 3-4 weeks after treatment
[7] = 0.2500 kg/ha, post-transplant rice, flooded paddy, rated 3-4 weeks after treatment
[8] = rate 0.1250 kg/ha, 3-4 weeks after treatment
[9] = rate 0.2500 kg/ha, 3-4 weeks after treatment
[10] = rate 0.1250 kg/ha, flooded paddy, post-transplant rice, 3-4 weeks after treatment
[11] = rate 0.2500 kg/ha, flooded paddy, post-transplant rice, 3-4 weeks after treatment

## O=C(O)CC1SC(=Nc2cc(N3C(=O)C4=C(CCCC4)C3=O)c(F)cc2Cl)N(CC(=O)O)C1=O (stereo not drawn) [Compound 48, 2-{[2-Chloro-5-(1-cyclohexene-1,2-dicarboximido)-4-fluorophenyl]imino}-4-oxo-3,5-thiazolidinediacetic acid]
AMBEL (Ragweed, Common); Rate 0.0156 kg/ha
  Postemergence herbicidal rating AMBEL: 3.0
AMBEL (Ragweed, Common); Rate 0.0313 kg/ha
  Postemergence herbicidal rating AMBEL: 5.0
AMBEL (Ragweed, Common); Rate 0.0625 kg/ha
  Postemergence herbicidal rating AMBEL: 9.0
GALAP (Galium); Rate 0.0156 kg/ha
  Postemergence herbicidal rating GALAP: 0.0
GALAP (Galium); Rate 0.0313 kg/ha
  Postemergence herbicidal rating GALAP: 0.0
GALAP (Galium); Rate 0.0625 kg/ha
  Postemergence herbicidal rating GALAP: 0.0
[1]; Rate 0.0156 kg/ha
  Postemergence herbicidal rating TRZAWR: 5.0
[1]; Rate 0.0313 kg/ha
  Postemergence herbicidal rating TRZAWR: 5.0
[1]; Rate 0.0625 kg/ha
  Postemergence herbicidal rating TRZAWR: 5.0
[2]; rate 0.0156 kg/ha
  Preemergence herbicidal rating CHEAL: 9.0
[2]; rate 0.0313 kg/ha
  Preemergence herbicidal rating CHEAL: 9.0
[2]; rate 0.0625 kg/ha
  Preemergence herbicidal rating CHEAL: 9.0
[2]; rate 0.1250 kg/ha
  Preemergence herbicidal rating CHEAL: 9.0
[2]; rate 0.2500 kg/ha
  Preemergence herbicidal rating CHEAL: 9.0
ORYSAT (Rice, Tebonnet) [3]; [6]
  Herbicidal rating ORYSAT (rice tolerance): 4.0
ORYSAT (Rice, Tebonnet) [3]; [7]
  Herbicidal rating ORYSAT (rice tolerance): 6.0
MOOVA (Monochoria); rate 0.1250 kg/ha
  Herbicidal rating MOOVA: 3.0
MOOVA (Monochoria); rate 0.2500 kg/ha
  Herbicidal rating MOOVA: 6.0
[4]; [8]
  Herbicidal rating SAGPY: 3.0
[4]; [9]
  Herbicidal rating SAGPY: 6.0
ORYSAT (Rice, Tebonnet) [5]; [10]
  Herbicidal rating ORYSAT (rice tolerance): 4.0
ORYSAT (Rice, Tebonnet) [5]; [11]
  Herbicidal rating ORYSAT (rice tolerance): 6.0

## Cn1c(C(F)(F)F)cc(=O)n(-c2cc(N=C3SCC(=O)N3CCC(=O)O)c(Cl)cc2F)c1=O [Compound 30, 2-{{2-Chloro-5-[3,6-dihydro-3-methyl-2,6-dioxo-4-(trifluoromethyl)-1(2H)-pyrimidinyl]-4-fluorophenyl}imino}-4-oxo-3-thiazolidinepropionic acid]
AMBEL (Ragweed, Common); Rate 0.0158 kg/ha
  Postemergence herbicidal rating AMBEL: 0.0
AMBEL (Ragweed, Common); Rate 0.0315 kg/ha
  Postemergence herbicidal rating AMBEL: 0.0
AMBEL (Ragweed, Common); Rate 0.0630 kg/ha
  Postemergence herbicidal rating AMBEL: 1.0
GALAP (Galium); Rate 0.0158 kg/ha
  Postemergence herbicidal rating GALAP: 0.0
GALAP (Galium); Rate 0.0315 kg/ha
  Postemergence herbicidal rating GALAP: 0.0
GALAP (Galium); Rate 0.0630 kg/ha
  Postemergence herbicidal rating GALAP: 0.0
[1]; Rate 0.0158 kg/ha
  Postemergence herbicidal rating TRZAWR: 4.0
[1]; Rate 0.0315 kg/ha
  Postemergence herbicidal rating TRZAWR: 4.5
[1]; Rate 0.0630 kg/ha
  Postemergence herbicidal rating TRZAWR: 5.5
[2]; rate 0.0313 kg/ha
  Preemergence herbicidal rating CHEAL: 0.0
[2]; rate 0.0625 kg/ha
  Preemergence herbicidal rating CHEAL: 0.0
[2]; rate 0.1250 kg/ha
  Preemergence herbicidal rating CHEAL: 9.0
[2]; rate 0.2500 kg/ha
  Preemergence herbicidal rating CHEAL: 9.0
ORYSAT (Rice, Tebonnet) [3]; in vivo
  Herbicidal rating ORYSAT (rice tolerance): 0.0
MOOVA (Monochoria); rate 0.1250 kg/ha
  Herbicidal rating MOOVA: 1.5
MOOVA (Monochoria); rate 0.2500 kg/ha
  Herbicidal rating MOOVA: 4.5
[4]; [8]
  Herbicidal rating SAGPY: 0.0
[4]; [9]
  Herbicidal rating SAGPY: 2.0
ORYSAT (Rice, Tebonnet) [5]; in vivo
  Herbicidal rating ORYSAT (rice tolerance): 0.0

## CCOP(=O)(CN1C(=O)CSC1=Nc1cc(-n2c(=O)cc(C(F)(F)F)n(C)c2=O)c(F)cc1Cl)OCC [Compound 35, Diethyl {{2-{{2-chloro-5-[3,6-dihydro-3-methyl-2,6-dioxo-4-(trifluoromethyl)-1(2H)-pyrimidinyl]-4-fluorophenyl}imino}-4-oxo-3-thiazolidinyl}methyl}phosphonate]
AMBEL (Ragweed, Common); Rate 0.0158 kg/ha
  Postemergence herbicidal rating AMBEL: 9.0
AMBEL (Ragweed, Common); Rate 0.0315 kg/ha
  Postemergence herbicidal rating AMBEL: 9.0
AMBEL (Ragweed, Common); Rate 0.0630 kg/ha
  Postemergence herbicidal rating AMBEL: 9.0
GALAP (Galium); Rate 0.0158 kg/ha
  Postemergence herbicidal rating GALAP: 4.0
GALAP (Galium); Rate 0.0315 kg/ha
  Postemergence herbicidal rating GALAP: 5.0
GALAP (Galium); Rate 0.0630 kg/ha
  Postemergence herbicidal rating GALAP: 5.0
[1]; Rate 0.0158 kg/ha
  Postemergence herbicidal rating TRZAWR: 2.5
[1]; Rate 0.0315 kg/ha
  Postemergence herbicidal rating TRZAWR: 3.0
[1]; Rate 0.0630 kg/ha
  Postemergence herbicidal rating TRZAWR: 3.5
[2]; rate 0.0625 kg/ha
  Preemergence herbicidal rating CHEAL: 9.0
[2]; rate 0.1250 kg/ha
  Preemergence herbicidal rating CHEAL: 9.0
[2]; rate 0.2500 kg/ha
  Preemergence herbicidal rating CHEAL: 9.0
ORYSAT (Rice, Tebonnet) [3]; [6]
  Herbicidal rating ORYSAT (rice tolerance): 2.0
ORYSAT (Rice, Tebonnet) [3]; [7]
  Herbicidal rating ORYSAT (rice tolerance): 3.0
[4]; [8]
  Herbicidal rating SAGPY: 0.0
[4]; [9]
  Herbicidal rating SAGPY: 3.0
ORYSAT (Rice, Tebonnet) [5]; [10]
  Herbicidal rating ORYSAT (rice tolerance): 2.0
ORYSAT (Rice, Tebonnet) [5]; [11]
  Herbicidal rating ORYSAT (rice tolerance): 3.0

## CCOC(=O)CCN1C(=O)CSC1=Nc1cc(-n2c(=O)cc(C(F)(F)F)n(C)c2=O)c(Cl)cc1Cl [Compound 32, Ethyl 2-{{2,4-dichloro-5-[3,6-dihydro-3-methyl-2,6-dioxo-4-(trifluoromethyl)-1(2H)-pyrimidinyl]-phenyl}imino}-4-oxo-3-thiazolidinepropionate]
AMBEL (Ragweed, Common); Rate 0.0158 kg/ha
  Postemergence herbicidal rating AMBEL: 3.0
AMBEL (Ragweed, Common); Rate 0.0313 kg/ha
  Postemergence herbicidal rating AMBEL: 0.0
AMBEL (Ragweed, Common); Rate 0.0625 kg/ha
  Postemergence herbicidal rating AMBEL: 3.0
AMBEL (Ragweed, Common); Rate 0.1250 kg/ha
  Postemergence herbicidal rating AMBEL: 9.0
GALAP (Galium); Rate 0.0158 kg/ha
  Postemergence herbicidal rating GALAP: 0.0
GALAP (Galium); Rate 0.0313 kg/ha
  Postemergence herbicidal rating GALAP: 0.0
GALAP (Galium); Rate 0.0625 kg/ha
  Postemergence herbicidal rating GALAP: 0.0
GALAP (Galium); Rate 0.1250 kg/ha
  Postemergence herbicidal rating GALAP: 2.0
[1]; Rate 0.0158 kg/ha
  Postemergence herbicidal rating TRZAWR: 2.0
[1]; Rate 0.0313 kg/ha
  Postemergence herbicidal rating TRZAWR: 3.5
[1]; Rate 0.0625 kg/ha
  Postemergence herbicidal rating TRZAWR: 4.0
[1]; Rate 0.1250 kg/ha
  Postemergence herbicidal rating TRZAWR: 4.0
[2]; rate 0.0156 kg/ha
  Preemergence herbicidal rating CHEAL: 4.5
[2]; rate 0.0313 kg/ha
  Preemergence herbicidal rating CHEAL: 4.5
[2]; rate 0.0625 kg/ha
  Preemergence herbicidal rating CHEAL: 9.0
[2]; rate 0.1250 kg/ha
  Preemergence herbicidal rating CHEAL: 9.0
[2]; rate 0.2500 kg/ha
  Preemergence herbicidal rating CHEAL: 9.0
[2]; rate 0.5000 kg/ha
  Preemergence herbicidal rating CHEAL: 9.0
ORYSAT (Rice, Tebonnet) [3]; in vivo
  Herbicidal rating ORYSAT (rice tolerance): 0.0
[4]; [8]
  Herbicidal rating SAGPY: 0.0
[4]; [9]
  Herbicidal rating SAGPY: 0.0
ORYSAT (Rice, Tebonnet) [5]; in vivo
  Herbicidal rating ORYSAT (rice tolerance): 0.0

## COC(=O)C1(N2C(=O)CSC2=Nc2cc(-n3c(=O)cc(C(F)(F)F)n(C)c3=O)c(F)cc2Cl)CCCCC1 [Compound 81, Methyl 1-{2-{{2-chloro-5-[3,6-dihydro-3-methyl-2,6-dioxo-4-(trifluoromethyl)-1(2H)-pyrimidinyl]-4-fluorophenyl}imino}-4-oxo-3-thiazolidinyl}-cyclohexanecarboxylate]
AMBEL (Ragweed, Common); rate 0.0158 kg/ha
  AMBEL herbicidal rating: 9.0
AMBEL (Ragweed, Common); rate 0.0315 kg/ha
  AMBEL herbicidal rating: 9.0
AMBEL (Ragweed, Common); rate 0.0630 kg/ha
  AMBEL herbicidal rating: 9.0
GALAP (Galium); rate 0.0158 kg/ha
  GALAP herbicidal rating: 1.0
GALAP (Galium); rate 0.0315 kg/ha
  GALAP herbicidal rating: 5.0
GALAP (Galium); rate 0.0630 kg/ha
  GALAP herbicidal rating: 4.0
[1]; rate 0.0158 kg/ha
  TRZAWR herbicidal rating: 4.5
[1]; rate 0.0315 kg/ha
  TRZAWR herbicidal rating: 5.0
[1]; rate 0.0630 kg/ha
  TRZAWR herbicidal rating: 6.0
[2]; 0.0313 kg/ha
  CHEAL rating: 7.0
[2]; 0.0625 kg/ha
  CHEAL rating: 9.0
[2]; 0.1250 kg/ha
  CHEAL rating: 9.0
[2]; 0.2500 kg/ha
  CHEAL rating: 9.0
ORYSAT (Rice, Tebonnet) [3]; in vivo
  ORYSAT herbicidal effect rating (rice tolerance): 0.0
[4]; Rate 0.0625 kg/ha, rated 3 to 4 weeks after treatment
  Herbicidal rating SAGPY: 0.0
[4]; Rate 0.1250 kg/ha, rated 3 to 4 weeks after treatment
  Herbicidal rating SAGPY: 0.0
[4]; Rate 0.2500 kg/ha, rated 3 to 4 weeks after treatment
  Herbicidal rating SAGPY: 0.0
ORYSAT (Rice, Tebonnet) [5]; in vivo
  Herbicidal rating ORYSAT (rice tolerance): 0.0
